Measured values reported in patent publication US20250171437A1 (Agios Pharmaceuticals,Inc., priority 2022, published 2025).

Target: T1, human PAH with the R408W mutation (A375 R408W cells) (Homo sapiens, UniProt P00439, R408W)
T1 construct: expressed in transfected cells
T1 sequence (P00439 1-452 R408W): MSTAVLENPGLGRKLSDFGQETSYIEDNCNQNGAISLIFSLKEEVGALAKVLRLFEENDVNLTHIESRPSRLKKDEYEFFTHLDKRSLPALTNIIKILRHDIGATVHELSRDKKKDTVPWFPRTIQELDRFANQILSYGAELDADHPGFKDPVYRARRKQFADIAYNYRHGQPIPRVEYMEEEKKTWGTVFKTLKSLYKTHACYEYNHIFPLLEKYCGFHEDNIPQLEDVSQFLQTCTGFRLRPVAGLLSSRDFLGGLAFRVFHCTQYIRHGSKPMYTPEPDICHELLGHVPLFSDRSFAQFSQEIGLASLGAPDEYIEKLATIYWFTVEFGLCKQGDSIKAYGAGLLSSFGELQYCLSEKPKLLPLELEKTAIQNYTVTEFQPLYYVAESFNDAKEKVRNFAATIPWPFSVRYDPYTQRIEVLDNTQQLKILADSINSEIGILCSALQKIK
Test: Cell Based Phenylalanine Flux Assay
Conditions: A375 R408W cells; 24 hrs with compound, then 20 μM sepiapterin and 800 μM 13C9,15N-Phenylalanine for 4 hours; 13C-Tyrosine by LC-MS; average where tested multiple times
Outline: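 A375 cells stably expressing lentiviral human PAH R408W were treated with compounds (10-point 2-fold dilutions, 0.5% DMSO, duplicate) for 24 h at 37 °C. Then 20 μM sepiapterin and 800 μM 13C9,15N-Phe were added for 4 h; media 13C-Tyr was measured by LC-MS to give AC50.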

Row | AC50 [nM] | SMILES
1 | 500 to 1000 | O=C(c1cnco1)N1CCc2[nH]cnc2[C@H]1c1nc2c(F)ccc(F)c2o1 [Example 483, (S)-(4-(4,7-difluorobenzo[d]oxazol-2-yl)-6,7-dihydro-1H-imidazo[4,5-c]pyridin-5(4H)-yl)(oxazol-5-yl)methanone]
2 | 1000 to 5000 | O=C(c1cnco1)N1CCc2[nH]cnc2[C@@H]1c1nc2c(F)ccc(F)c2o1 [Example 484, (R)-(4-(4,7-difluorobenzo[d]oxazol-2-yl)-6,7-dihydro-1H-imidazo[4,5-c]pyridin-5(4H)-yl)(oxazol-5-yl)methanone]
3 | 1000 to 5000 | Cn1nc(C(F)F)nc1C(=O)N1CCc2[nH]cnc2[C@@H]1c1nc2c(F)ccc(F)c2o1 [Example 485, (R)-(4-(4,7-difluorobenzo[d]oxazol-2-yl)-6,7-dihydro-1H-imidazo[4,5-c]pyridin-5(4H)-yl)(3-(difluoromethyl)-1-methyl-1H-1,2,4-triazol-5-yl)methanone]
4 | 500 to 1000 | Cn1nc(C(F)F)nc1C(=O)N1CCc2[nH]cnc2[C@H]1c1nc2c(F)ccc(F)c2o1 [Example 486, (S)-(4-(4,7-difluorobenzo[d]oxazol-2-yl)-6,7-dihydro-1H-imidazo[4,5-c]pyridin-5(4H)-yl)(3-(difluoromethyl)-1-methyl-1H-1,2,4-triazol-5-yl)methanone]
5 | ≤ 500 | O=C(c1ccnn1C(F)F)N1CCc2[nH]cnc2[C@H]1c1nc2c(F)ccc(F)c2o1 [Example 487, (S)-(4-(4,7-difluorobenzo[d]oxazol-2-yl)-6,7-dihydro-1H-imidazo[4,5-c]pyridin-5(4H)-yl)(1-(difluoromethyl)-1H-pyrazol-5-yl)methanone]
6 | 1000 to 5000 | O=C(c1ccnn1C(F)F)N1CCc2[nH]cnc2[C@@H]1c1nc2c(F)ccc(F)c2o1 [Example 488, (R)-(4-(4,7-difluorobenzo[d]oxazol-2-yl)-6,7-dihydro-1H-imidazo[4,5-c]pyridin-5(4H)-yl)(1-(difluoromethyl)-1H-pyrazol-5-yl)methanone]
7 | 500 to 1000 | O=C(c1ccnn1C(F)F)N1CCc2[nH]cnc2[C@H]1c1nc2c(F)cc(F)cc2o1 [Example 489, (S)-(4-(4,6-difluorobenzo[d]oxazol-2-yl)-6,7-dihydro-1H-imidazo[4,5-c]pyridin-5(4H)-yl)(1-(difluoromethyl)-1H-pyrazol-5-yl)methanone]
8 | 1000 to 5000 | O=C(c1ccnn1C(F)F)N1CCc2[nH]cnc2[C@@H]1c1nc2c(F)cc(F)cc2o1 [Example 490, (R)-(4-(4,6-difluorobenzo[d]oxazol-2-yl)-6,7-dihydro-1H-imidazo[4,5-c]pyridin-5(4H)-yl)(1-(difluoromethyl)-1H-pyrazol-5-yl)methanone]
9 | 500 to 1000 | Cc1ccc2oc([C@@H]3c4nc[nH]c4CCN3C(=O)c3nnc(-c4cn[nH]c4)o3)nc2c1 [Example 491, (S)-(5-(1H-pyrazol-4-yl)-1,3,4-oxadiazol-2-yl)(4-(5-methylbenzo[d]oxazol-2-yl)-6,7-dihydro-1H-imidazo[4,5-c]pyridin-5(4H)-yl)methanone]
10 | 1000 to 5000 | Cc1ccc2oc([C@H]3c4nc[nH]c4CCN3C(=O)c3nnc(-c4cn[nH]c4)o3)nc2c1 [Example 492, (R)-(5-(1H-pyrazol-4-yl)-1,3,4-oxadiazol-2-yl)(4-(5-methylbenzo[d]oxazol-2-yl)-6,7-dihydro-1H-imidazo[4,5-c]pyridin-5(4H)-yl)methanone]
11 | ≤ 500 | O=C(c1ocnc1C(F)F)N1CCc2[nH]cnc2[C@H]1c1nc2cccc(C(F)(F)F)c2o1 [Example 493, (S)-(4-(difluoromethyl)oxazol-5-yl)(4-(7-(trifluoromethyl)benzo[d]oxazol-2-yl)-6,7-dihydro-1H-imidazo[4,5-c]pyridin-5(4H)-yl)methanone]
12 | ≤ 500 | O=C(c1ocnc1C(F)F)N1CCc2[nH]cnc2[C@@H]1c1nc2cccc(C(F)(F)F)c2o1 [Example 494, (R)-(4-(difluoromethyl)oxazol-5-yl)(4-(7-(trifluoromethyl)benzo[d]oxazol-2-yl)-6,7-dihydro-1H-imidazo[4,5-c]pyridin-5(4H)-yl)methanone]
13 | 1000 to 5000 | Cc1nc(C(=O)N2CCc3[nH]cnc3[C@H]2c2nc3cccc(F)c3o2)n(C)n1 [Example 495, (S)-(1,3-dimethyl-1H-1,2,4-triazol-5-yl)(4-(7-fluorobenzo[d]oxazol-2-yl)-6,7-dihydro-1H-imidazo[4,5-c]pyridin-5(4H)-yl)methanone]
14 | 1000 to 5000 | Cc1nc(C(=O)N2CCc3[nH]cnc3[C@@H]2c2nc3cccc(F)c3o2)n(C)n1 [Example 496, (R)-(1,3-dimethyl-1H-1,2,4-triazol-5-yl)(4-(7-fluorobenzo[d]oxazol-2-yl)-6,7-dihydro-1H-imidazo[4,5-c]pyridin-5(4H)-yl)methanone]
15 | 1000 to 5000 | Cn1nc(C2CC2)nc1C(=O)N1CCc2[nH]cnc2[C@H]1c1nc2cccc(F)c2o1 [Example 497, (S)-(3-cyclopropyl-1-methyl-1H-1,2,4-triazol-5-yl)(4-(7-fluorobenzo[d]oxazol-2-yl)-6,7-dihydro-1H-imidazo[4,5-c]pyridin-5(4H)-yl)methanone]
16 | 1000 to 5000 | Cn1nc(C2CC2)nc1C(=O)N1CCc2[nH]cnc2[C@@H]1c1nc2cccc(F)c2o1 [Example 498, (R)-(3-cyclopropyl-1-methyl-1H-1,2,4-triazol-5-yl)(4-(7-fluorobenzo[d]oxazol-2-yl)-6,7-dihydro-1H-imidazo[4,5-c]pyridin-5(4H)-yl)methanone]
17 | ≤ 500 | Cc1cc(F)c2oc([C@@H]3c4nc[nH]c4CCN3C(=O)c3oc(C(C)(C)O)nc3C(F)F)nc2c1 [Example 499, (S)-(4-(difluoromethyl)-2-(2-hydroxypropan-2-yl)oxazol-5-yl)(4-(7-fluoro-5-methylbenzo[d]oxazol-2-yl)-6,7-dihydro-1H-imidazo[4,5-c]pyridin-5(4H)-yl)methanone]
18 | ≤ 500 | Cc1cc(F)c2oc([C@H]3c4nc[nH]c4CCN3C(=O)c3oc(C(C)(C)O)nc3C(F)F)nc2c1 [Example 500, (R)-(4-(difluoromethyl)-2-(2-hydroxypropan-2-yl)oxazol-5-yl)(4-(7-fluoro-5-methylbenzo[d]oxazol-2-yl)-6,7-dihydro-1H-imidazo[4,5-c]pyridin-5(4H)-yl)methanone]
19 | ≤ 500 | Cc1cc(F)c2oc([C@@H]3c4nc[nH]c4CCN3C(=O)c3ocnc3C(F)F)nc2c1 [Example 501, (S)-(4-(difluoromethyl)oxazol-5-yl)(4-(7-fluoro-5-methylbenzo[d]oxazol-2-yl)-6,7-dihydro-1H-imidazo[4,5-c]pyridin-5(4H)-yl)methanone]
20 | ≤ 500 | Cc1cc(F)c2oc([C@H]3c4nc[nH]c4CCN3C(=O)c3ocnc3C(F)F)nc2c1 [Example 502, (R)-(4-(difluoromethyl)oxazol-5-yl)(4-(7-fluoro-5-methylbenzo[d]oxazol-2-yl)-6,7-dihydro-1H-imidazo[4,5-c]pyridin-5(4H)-yl)methanone]
21 | ≥ 5000 | O=C(c1cnn2cc(N3CCOCC3)ccc12)N1CCc2[nH]cnc2[C@@H]1c1nc2c(F)cccc2o1 [Example 503, (R)-(4-(4-fluorobenzo[d]oxazol-2-yl)-6,7-dihydro-1H-imidazo[4,5-c]pyridin-5(4H)-yl)(6-morpholinopyrazolo[1,5-a]pyridin-3-yl)methanone]
